In ChEMBL document CHEMBL1136991, “Novel potent BRAF inhibitors: toward 1 nM compounds through optimization of the central phenyl ring” (J Med Chem, 2009):

Assays:
[1] = target: Ribosomal protein S6 kinase alpha-3 (Homo sapiens) (UniProt P51812); assay: Inhibition of RSK2 at 1 uM relative to control
[2] = target: SRSF protein kinase 1 (Homo sapiens) (UniProt Q96SB4); assay: Inhibition of SRPK1 at 1 uM relative to control
[3] = Inhibition of PKA at 1 uM relative to control
[4] = target: Mitogen-activated protein kinase 14 (Homo sapiens) (UniProt Q16539); assay: Inhibition of p38alpha at 1 uM relative to control
[5] = target: T1, Protein kinase C zeta type (Homo sapiens) (UniProt Q05513); assay: Inhibition of PKCzeta at 1 uM relative to control
T1 sequence (whole entry): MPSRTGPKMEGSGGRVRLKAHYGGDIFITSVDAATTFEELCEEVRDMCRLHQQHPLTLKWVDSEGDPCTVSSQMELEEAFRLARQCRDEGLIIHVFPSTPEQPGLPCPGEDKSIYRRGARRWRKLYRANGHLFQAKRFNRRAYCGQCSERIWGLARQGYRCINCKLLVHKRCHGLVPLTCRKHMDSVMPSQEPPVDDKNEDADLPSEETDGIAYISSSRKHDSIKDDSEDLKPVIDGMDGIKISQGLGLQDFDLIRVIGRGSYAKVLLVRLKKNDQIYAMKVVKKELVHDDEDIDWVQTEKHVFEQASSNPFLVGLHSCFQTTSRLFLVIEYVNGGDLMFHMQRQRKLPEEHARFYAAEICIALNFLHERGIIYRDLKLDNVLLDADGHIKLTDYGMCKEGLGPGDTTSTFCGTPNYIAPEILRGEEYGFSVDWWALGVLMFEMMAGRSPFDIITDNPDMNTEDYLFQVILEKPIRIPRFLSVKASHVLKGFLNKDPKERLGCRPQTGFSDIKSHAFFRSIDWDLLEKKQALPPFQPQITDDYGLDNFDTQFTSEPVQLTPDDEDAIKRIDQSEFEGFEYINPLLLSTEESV

[6] = target: Serine/threonine-protein kinase Nek7 (Homo sapiens) (UniProt Q8TDX7); assay: Inhibition of NEK7 at 1 uM relative to control
[7] = Inhibition of PHK at 1 uM relative to control
[8] = target: T2, Mitogen-activated protein kinase 12 (Homo sapiens) (UniProt P53778); assay: Inhibition of p38-gamma at 1 uM relative to control
T2 sequence (whole entry): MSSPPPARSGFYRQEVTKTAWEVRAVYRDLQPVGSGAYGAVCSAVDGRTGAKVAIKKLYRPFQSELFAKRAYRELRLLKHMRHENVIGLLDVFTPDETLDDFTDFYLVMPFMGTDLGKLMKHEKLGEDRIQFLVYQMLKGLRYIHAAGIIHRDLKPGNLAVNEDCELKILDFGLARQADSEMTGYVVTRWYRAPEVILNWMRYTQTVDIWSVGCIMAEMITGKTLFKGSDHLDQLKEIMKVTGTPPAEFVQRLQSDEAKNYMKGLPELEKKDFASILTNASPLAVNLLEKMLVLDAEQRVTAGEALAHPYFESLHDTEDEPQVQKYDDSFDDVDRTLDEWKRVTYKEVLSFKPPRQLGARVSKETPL

Sequence of SRSF protein kinase 1 (Homo sapiens) (Q96SB4 whole entry): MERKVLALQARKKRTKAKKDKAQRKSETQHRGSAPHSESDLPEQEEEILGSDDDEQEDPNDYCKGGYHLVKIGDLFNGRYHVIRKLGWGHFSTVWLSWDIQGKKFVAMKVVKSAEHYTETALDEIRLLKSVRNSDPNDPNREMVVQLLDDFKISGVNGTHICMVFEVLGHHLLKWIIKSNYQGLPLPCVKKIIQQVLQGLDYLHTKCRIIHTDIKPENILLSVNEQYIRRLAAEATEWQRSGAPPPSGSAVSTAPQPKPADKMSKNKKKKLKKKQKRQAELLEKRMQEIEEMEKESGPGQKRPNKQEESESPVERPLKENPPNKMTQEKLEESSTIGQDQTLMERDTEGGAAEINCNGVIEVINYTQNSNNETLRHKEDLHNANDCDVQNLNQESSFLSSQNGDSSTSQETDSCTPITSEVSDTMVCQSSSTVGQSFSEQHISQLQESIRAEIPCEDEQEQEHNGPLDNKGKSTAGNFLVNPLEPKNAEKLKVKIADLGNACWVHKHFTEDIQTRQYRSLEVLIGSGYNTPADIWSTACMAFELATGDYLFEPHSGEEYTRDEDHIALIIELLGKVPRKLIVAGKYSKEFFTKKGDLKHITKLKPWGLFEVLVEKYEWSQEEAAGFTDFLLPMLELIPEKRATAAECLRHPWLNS
Sequence of Ribosomal protein S6 kinase alpha-3 (Homo sapiens) (P51812 whole entry): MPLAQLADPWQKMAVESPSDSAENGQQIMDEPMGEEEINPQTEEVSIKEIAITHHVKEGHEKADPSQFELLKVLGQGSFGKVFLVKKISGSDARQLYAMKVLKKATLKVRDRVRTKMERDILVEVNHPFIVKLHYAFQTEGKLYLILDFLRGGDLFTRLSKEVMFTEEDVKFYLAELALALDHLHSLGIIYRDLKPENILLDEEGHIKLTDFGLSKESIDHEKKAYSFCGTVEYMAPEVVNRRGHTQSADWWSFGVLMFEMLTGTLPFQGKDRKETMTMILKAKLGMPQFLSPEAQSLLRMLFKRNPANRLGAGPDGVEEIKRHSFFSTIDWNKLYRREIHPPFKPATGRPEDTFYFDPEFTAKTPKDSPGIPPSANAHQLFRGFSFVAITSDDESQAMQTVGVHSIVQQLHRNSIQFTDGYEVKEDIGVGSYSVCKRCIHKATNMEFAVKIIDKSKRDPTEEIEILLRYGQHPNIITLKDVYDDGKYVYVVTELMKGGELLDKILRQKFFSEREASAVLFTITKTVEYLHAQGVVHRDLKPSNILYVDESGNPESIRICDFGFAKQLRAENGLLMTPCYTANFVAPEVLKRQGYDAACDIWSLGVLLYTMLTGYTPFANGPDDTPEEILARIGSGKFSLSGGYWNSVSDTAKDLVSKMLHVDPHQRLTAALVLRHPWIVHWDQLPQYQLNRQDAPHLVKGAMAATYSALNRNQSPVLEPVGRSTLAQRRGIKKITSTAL
Sequence of Mitogen-activated protein kinase 14 (Homo sapiens) (Q16539 whole entry): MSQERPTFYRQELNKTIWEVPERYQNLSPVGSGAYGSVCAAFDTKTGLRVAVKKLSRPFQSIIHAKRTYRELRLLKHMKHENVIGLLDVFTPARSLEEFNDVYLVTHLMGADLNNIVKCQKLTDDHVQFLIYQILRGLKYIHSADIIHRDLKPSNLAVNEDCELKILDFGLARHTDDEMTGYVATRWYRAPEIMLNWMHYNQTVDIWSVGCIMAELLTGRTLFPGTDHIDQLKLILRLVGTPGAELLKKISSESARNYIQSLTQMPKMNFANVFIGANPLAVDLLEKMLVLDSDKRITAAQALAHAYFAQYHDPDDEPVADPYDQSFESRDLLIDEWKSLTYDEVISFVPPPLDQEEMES
Sequence of Serine/threonine-protein kinase Nek7 (Homo sapiens) (Q8TDX7 whole entry, looked up): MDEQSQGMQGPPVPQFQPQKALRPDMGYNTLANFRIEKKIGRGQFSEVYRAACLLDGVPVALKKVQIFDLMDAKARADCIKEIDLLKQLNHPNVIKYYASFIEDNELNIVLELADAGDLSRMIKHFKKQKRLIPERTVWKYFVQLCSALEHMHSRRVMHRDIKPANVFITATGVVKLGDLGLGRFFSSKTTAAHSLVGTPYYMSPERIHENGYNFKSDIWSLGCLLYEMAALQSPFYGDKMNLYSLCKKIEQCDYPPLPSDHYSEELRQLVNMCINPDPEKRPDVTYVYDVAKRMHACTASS

Row | residual activity [1] [%] | residual activity [2] [%] | residual activity [3] [%] | residual activity [4] [%] | residual activity [5] [%] | residual activity [6] [%] | residual activity [7] [%] | residual activity [8] [%] | Structure (SMILES)
1 | 100 | 75 | 100 | < 25 | 75 | 100 | 100 | 50 | CSc1cc(Oc2ccnc3[nH]c(=O)[nH]c23)ccc1NC(=O)Nc1cccc(C(F)(F)F)c1
2 | 100 | 75 | 75 | 100 | 75 | 100 | 100 | 50 | O=C(Nc1cc(C(F)(F)F)ccc1F)Nc1ccc(Oc2ccnc3[nH]c(=O)[nH]c23)c2ccccc12
3 | 75 | 75 | 75 | < 25 | 75 | 75 | 75 | < 25 | CC(C)(C)c1cccc(NC(=O)Nc2ccc(Oc3ccnc4[nH]c(=O)[nH]c34)c3ccccc23)c1
